Like-named read-outs stand apart in the source and are kept apart here.
Assays:
[1] = target: T1, cloned human kappa opioid receptor (Homo sapiens, UniProt P41145); assay: cell-based
T1 construct: expressed in transfected cells; host or cells: CHO cells
Method: The efficacy of the various PEG-opioid conjugates was measured by their ability to inhibit cAMP formation following receptor activation. Studies were conducted in CHO cells heterologously expressing the cloned human mu, kappa or delta opioid receptors. cAMP was measured using a cAMP HiRange homogenous time-resolved fluorescence assay (HTRF Assay), that is based on a competitive immunoassay principle (Cisbio, Cat. #62AM6PEC).
Briefly, suspensions of cells expressing either the mu, kappa or delta opioid receptors were prepared in buffer containing 0.5 mM isobutyl-methyl xanthine (IBMX). […] EC50 values were calculated for each compound from a sigmoidal dose-response plot of concentrations versus maximum response. To determine if the compounds behaved as full or partial agonists in the system, the maximal response at the highest tested concentrations of compounds were compared to that produced by a known full agonist.

[2] = target: recombinant human delta opioid receptor (Homo sapiens, UniProt P41143); settings: GTP-γS binding, screened up to 10 μM in agonist and antagonist mode
Method: The reaction is initiated by 0.3 nM [^35S]GTPγS for an additional 30 minutes incubation period. Test compound-induced increase of [^35S]GTPγS binding by 50 percent or more (≧50%) relative to the receptor subtype-specific agonist response indicates possible opiate receptor agonist activity.

[3] = inhibition of cAMP formation, 3 μM forskolin, tested upto 500 μM

T1 sequence (P41145 whole entry): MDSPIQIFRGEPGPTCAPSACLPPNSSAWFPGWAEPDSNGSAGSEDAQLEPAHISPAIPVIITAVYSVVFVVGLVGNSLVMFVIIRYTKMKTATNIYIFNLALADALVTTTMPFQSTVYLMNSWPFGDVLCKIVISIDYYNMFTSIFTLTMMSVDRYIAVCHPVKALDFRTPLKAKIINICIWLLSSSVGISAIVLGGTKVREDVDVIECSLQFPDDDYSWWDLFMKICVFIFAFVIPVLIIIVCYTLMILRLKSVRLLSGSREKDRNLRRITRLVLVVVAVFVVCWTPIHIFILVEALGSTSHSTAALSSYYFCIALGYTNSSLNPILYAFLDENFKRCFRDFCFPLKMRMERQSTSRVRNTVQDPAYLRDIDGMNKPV
recombinant human delta opioid receptor, sequence (P41143 whole entry): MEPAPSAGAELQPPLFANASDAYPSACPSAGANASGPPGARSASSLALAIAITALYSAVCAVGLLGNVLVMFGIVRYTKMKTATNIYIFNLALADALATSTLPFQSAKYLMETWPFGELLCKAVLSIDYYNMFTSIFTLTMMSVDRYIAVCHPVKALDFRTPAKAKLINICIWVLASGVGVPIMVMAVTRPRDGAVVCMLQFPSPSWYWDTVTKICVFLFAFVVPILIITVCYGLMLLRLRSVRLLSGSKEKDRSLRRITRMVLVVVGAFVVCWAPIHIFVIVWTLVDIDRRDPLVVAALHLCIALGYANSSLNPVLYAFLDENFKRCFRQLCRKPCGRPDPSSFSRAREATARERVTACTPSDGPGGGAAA

| Compound | EC50 [1, 3] [µM] | EC50 [1] [µM] | other results |
| --- | --- | --- | --- |
| COCCOCCO[C@H]1CC[C@@]2(O)[C@H]3Cc4ccc(OC)c5c4[C@@]2(CCN3C)[C@H]1O5 [α-6-mPEG2-O-Hydroxycodone, α-6-mPEG2-O-hydroxycodone] | > 500 |  |  |
| COCCO[C@H]1CC[C@@]2(O)[C@H]3Cc4ccc(OC)c5c4[C@@]2(CCN3C)[C@H]1O5 [α-6-mPEG1-O-Hydroxycodone, α-6-mPEG1-O-hydroxycodone] | > 500 |  |  |
| COCCOCCOCCO[C@H]1CC[C@@]2(O)[C@H]3Cc4ccc(OC)c5c4[C@@]2(CCN3C)[C@H]1O5 [α-6-mPEG3-O-Hydroxycodone, α-6-mPEG3-O-hydroxycodone] | > 500 |  |  |
| COCCOCCOCCOCCOCCO[C@H]1CC[C@@]2(O)[C@H]3Cc4ccc(OC)c5c4[C@@]2(CCN3C)[C@H]1O5 [α-6-mPEG5-O-Hydroxycodone, α-6-mPEG5-O-hydroxycodone] | > 500 |  |  |
| COCCOCCOCCO[C@H]1CC[C@@]2(O)[C@H]3Cc4ccc(O)c5c4[C@@]2(CCN3CC2CCC2)C1O5 (some centres unmarked) [6-O-mPEG3-Nalbuphine, 6-O-mPEG3-nalbuphine] |  |  | effect at the delta opioid receptor [2]: no effect |
| COCCOCCOCCOCCO[C@H]1CC[C@@]2(O)[C@H]3Cc4ccc(OC)c5c4[C@@]2(CCN3C)[C@H]1O5 [α-6-mPEG4-O-Hydroxycodone, α-6-mPEG4-O-hydroxycodone] |  | > 500 |  |
| COCCOCCOCCOCCOCCOCCOCCOCCOCCO[C@H]1CC[C@@]2(O)[C@H]3Cc4ccc(OC)c5c4[C@@]2(CCN3C)[C@H]1O5 [α-6-mPEG9-O-Hydroxycodone, α-6-mPEG9-O-hydroxycodone] | > 500 |  |  |
| α-6-mPEG5-O-codeine |  | > 500 |  |
| COc1ccc2c3c1O[C@H]1C(O)CC[C@@]4(O)[C@@H](C2)N(C)CC[C@]314 (stereo partly drawn) [Hydroxycodone, α-6-hydroxycodone, reference compound] |  | > 500 |  |
| α-6-mPEG4-O-codeine |  | > 500 |  |
| COCCOCCOCCOCCOCCOCCO[C@H]1CC[C@@]2(O)[C@H]3Cc4ccc(OC)c5c4[C@@]2(CCN3C)[C@H]1O5 [α-6-mPEG6-O-Hydroxycodone, α-6-mPEG6-O-hydroxycodone] | > 500 |  |  |
| COCCOCCOCCOCCOCCOCCOCCO[C@H]1CC[C@@]2(O)[C@H]3Cc4ccc(OC)c5c4[C@@]2(CCN3C)[C@H]1O5 [α-6-mPEG7-O-Hydroxycodone, α-6-mPEG7-O-hydroxycodone] | > 500 |  |  |
| α-6-mPEG1-O-codeine |  | > 500 |  |
| α-6-mPEG6-O-codeine |  | > 500 |  |

From patent US8569343B2, “Oligomer-opioid agonist conjugates” (Nektar Therapeutics, priority 2007, dated 2013)
